Results reported in patent US9802928B2 (Merck Sharp & Dohme Corp., priority 2013, dated 2017).

Assays:
[1] = target: purified human autoBACE-2 (Homo sapiens (Human), UniProt Q9Y5Z0); experiment: BACE-2 Assay (BACE-HTRF assay); assay type: biochemical; conditions: Ki calculated from IC50 using the Cheng-Prusoff equation; QSY7-EISEVNLDAEFC-Eu-amide substrate, pH 5.0; read-out: BACE2 Ki
Procedure: Inhibitor IC50s at purified human autoBACE-2 are determined in a time-resolved endpoint proteolysis assay that measures hydrolysis of the QSY7-EISEVNLDAEFC-Eu-amide FRET peptide substrate (BACE-HTRF assay). BACE-mediated hydrolysis of this peptide results in an increase in relative fluorescence (RFU) at 620 nm after excitation with 320 nm light. Inhibitor compounds, prepared at 3× the desired final concentration in 1×BACE assay buffer (20 mM sodium acetate pH 5.0, 10% glycerol, 0.1% Brij-35) supplemented with 7.5% DMSO are pre-incubated with an equal volume of autoBACE-2 enzyme diluted in 1×BACE assay buffer (final enzyme concentration 1 nM) in black 384-well NUNC plates for 30 minutes at 30° C. The assay is initiated by addition of an equal volume of the QSY7-EISEVNLDAEFC-Eu-amide substrate (200 nM final concentration, Km=8 μM […] for autoBACE-2) prepared in 1×BACE assay buffer supplemented with 7.5% DMSO and incubated for 90 minutes at 30° C. DMSO is present at 5% final concentration in the assay. Following laser excitation of sample wells at 320 nm, the fluorescence signal at 620 nm is collected for 400 ms following a 50 μs delay on a RUBYstar HTRF plate reader (BMG Labtechnologies). Raw RFU data is normalized to maximum (1.0 nM BACE/DMSO) and minimum (no enzyme/DMSO) RFU values. IC50s are determined by nonlinear regression analysis (sigmoidal dose response, variable slope) of percent inhibition data with minimum and maximum values set to 0 and 100 percent respectively. Similar IC50s are obtained when using raw RFU data. The Ki values are calculated from the IC50 using the Cheng-Prusoff equation.

[2] = target: soluble human BACE1 catalytic domain (Homo sapiens (Human), UniProt P56817); experiment: BACE1 HTRF FRET Assay; assay type: biochemical; conditions: Ki calculated from IC50 using the Cheng-Prusoff equation; QSY7-APPswe-Eu substrate, pH 5.0
Source text: Na^+-Acetate pH 5.0; 1% Brij-35; Glycerol; Dimethyl Sulfoxide (DMSO); Recombinant human soluble BACE1 catalytic domain (>95% pure); APP Swedish mutant peptide substrate (QSY7-APP^swe-Eu): QSY7-[…]-Europium-amide.
A homogeneous time-resolved FRET assay can be used to determine IC50 values for inhibitors of the soluble human BACE1 catalytic domain. This assay monitors the increase of 620 nm fluorescence that resulted from BACE1 cleavage of an APPswedish APP^swe mutant peptide FRET substrate (QSY7-[…]-Europium-amide). This substrate contains an N-terminal QSY7 moiety that serves as a quencher of the C-terminal Europium fluorophore (620 nm Em). In the absence of enzyme activity, 620 nm fluorescence is low in the assay and increased linearly over 3 hours in the presence of uninhibited BACE1 enzyme Inhibition of BACE1 cleavage of the QSY7-APP^swe-Eu substrate by inhibitors is manifested as a suppression of 620 nm fluorescence.
Varying concentrations of inhibitors at 3× the final desired concentration in a volume of 10 ul are preincubated with purified human BACE1 catalytic domain (3 nM in 10 μl) for 30 minutes at 30° C. in reaction buffer containing 20 mM Na-Acetate pH 5.0, 10% glycerol, 0.1% Brij-35 and 7.5% DSMO. Reactions are initiated by addition of 10 μl of 600 nM QSY7-APP^swe-Eu substrate (200 nM final) to give a final reaction volume of 30 μl in a 384 well Nunc HTRF plate. The reactions are incubated at 30° C. for 1.5 hours. The 620 nm fluorescence is then read on a Rubystar HTRF plate reader (BMG Labtechnologies) using a 50 millisecond delay followed by a 400 millisecond acquisition time window. Inhibitor IC50 values are derived from non-linear regression analysis of concentration response curves. Ki values are then calculated from IC50 values using the Cheng-Prusoff equation using a previously determined […] of 8 μM for the QSY7-APP^swe-Eu substrate at BACE1.

Chain of soluble human BACE1 catalytic domain (P56817 75-416): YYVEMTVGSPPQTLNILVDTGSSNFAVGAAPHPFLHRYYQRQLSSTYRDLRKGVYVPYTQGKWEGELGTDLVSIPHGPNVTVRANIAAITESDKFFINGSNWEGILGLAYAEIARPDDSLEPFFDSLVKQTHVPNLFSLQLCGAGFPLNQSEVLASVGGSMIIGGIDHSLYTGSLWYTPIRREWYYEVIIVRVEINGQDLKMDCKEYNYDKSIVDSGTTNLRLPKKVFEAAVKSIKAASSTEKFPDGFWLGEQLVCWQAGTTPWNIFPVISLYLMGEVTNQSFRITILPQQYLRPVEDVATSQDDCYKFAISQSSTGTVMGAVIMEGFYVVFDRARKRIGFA
Chain of purified human autoBACE-2 (Q9Y5Z0 63-473 limits assumed): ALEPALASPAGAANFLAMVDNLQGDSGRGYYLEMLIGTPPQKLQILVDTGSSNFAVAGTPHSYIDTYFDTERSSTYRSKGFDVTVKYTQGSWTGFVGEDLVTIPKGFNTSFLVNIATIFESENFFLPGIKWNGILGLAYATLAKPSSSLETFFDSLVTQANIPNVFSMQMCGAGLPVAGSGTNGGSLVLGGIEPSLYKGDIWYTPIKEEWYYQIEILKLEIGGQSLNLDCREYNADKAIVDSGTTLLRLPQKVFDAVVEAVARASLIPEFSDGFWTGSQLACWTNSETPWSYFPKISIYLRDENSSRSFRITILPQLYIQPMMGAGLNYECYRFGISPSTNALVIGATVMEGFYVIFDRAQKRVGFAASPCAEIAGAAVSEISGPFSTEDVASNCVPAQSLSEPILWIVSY

SMILES | Ki [1] [nM] | Ki [2] [nM]
CN1C(=N)N[C@](C)(c2cc(NC(=O)c3ccc(OC(F)F)cn3)ccc2F)C2(CC2)S1(=O)=O [Example 1s, 5-(difluoromethoxy)-N-{4-fluoro-3-[(8R)-6-imino-5,8-dimethyl-4,4-dioxido-4-thia-5,7-diazaspiro[2.5]oct-8-yl]phenyl}pyridine-2-carboxamide] | 46 | 8
Cc1cc(C(=O)Nc2ccc(F)c([C@@]3(C)NC(=N)N(C)S(=O)(=O)C34CC4)c2)no1 [Example 1n, N-{4-fluoro-3-[(8R)-6-imino-5,8-dimethyl-4,4-dioxido-4-thia-5,7-diazaspiro[2.5]oct-8-yl]phenyl}-5-methylisoxazole-3-carboxamide] | 220 | 620
Cc1nc(C(=O)Nc2ccc(F)c([C@@]3(C)NC(=N)N(C)S(=O)(=O)C34CC4)c2)no1 [Example 1h, N-{4-fluoro-3-[(8R)-6-imino-5,8-dimethyl-4,4-dioxido-4-thia-5,7-diazaspiro[2.5]oct-8-yl]phenyl}-5-methyl-1,2,4-oxadiazole-3-carboxamide] | 8 | 31
CN1C(=N)N[C@](C)(c2cc(NC(=O)c3cnc(OCCF)cn3)ccc2F)C2(CC2)S1(=O)=O [Example 1t, 5-(2-fluoroethoxy)-N-{4-fluoro-3-[(8R)-6-imino-5,8-dimethyl-4,4-dioxido-4-thia-5,7-diazaspiro[2.5]oct-8-yl]phenyl}pyrazine-2-carboxamide] | 285 | 42
CN1C(=N)N[C@](C)(c2cc(NC(=O)c3ccn(C(F)F)n3)ccc2F)C2(CC2)S1(=O)=O [Example 1l, 1-(difluoromethyl)-N-{4-fluoro-3-[(8R)-6-imino-5,8-dimethyl-4,4-dioxido-4-thia-5,7-diazaspiro[2.5]oct-8-yl]phenyl}-1H-pyrazole-3-carboxamide] | 2 | 5
CN1C(=N)N[C@](C)(c2cc(NC(=O)c3ccc(Cl)cn3)ccc2F)C2(CC2)S1(=O)=O [Example 2, 5-chloro-N-{4-fluoro-3-[(8R)-6-imino-5,8-dimethyl-4,4-dioxido-4-thia-5,7-diazaspiro[2.5]oct-8-yl]phenyl}pyridine-2-carboxamide] | 2 | 5
CN1C(=N)N[C@](C)(c2cc(NC(=O)c3cnc(OCC(F)(F)F)cn3)ccc2F)C2(CC2)S1(=O)=O [Example 1w, N-{4-fluoro-3-[(8R)-6-imino-5,8-dimethyl-4,4-dioxido-4-thia-5,7-diazaspiro[2.5]oct-8-yl]phenyl}-5-(2,2,2-trifluoroethoxy)pyrazine-2-carboxamide] | 159 | 6
COc1cnc(C(=O)Nc2ccc(F)c([C@@]3(C)NC(=N)N(C)S(=O)(=O)C34CC4)c2)cn1 [Example 1e] | 56 | 20
C#CCOc1ccc(C(=O)Nc2ccc(F)c([C@@]3(C)NC(=N)N(C)S(=O)(=O)C34CC4)c2)nc1 [Example 1c, N-{4-fluoro-3-[(8R)-6-imino-5,8-dimethyl-4,4-dioxido-4-thia-5,7-diazaspiro[2.5]oct-8-yl]phenyl}-5-(prop-2-yn-1-yloxy)pyridine-2-carboxamide] | 95 | 6
CN1C(=N)N[C@](C)(c2cc(NC(=O)c3cn4ccc(C#N)cc4n3)ccc2F)C2(CC2)S1(=O)=O [Example 1m, 7-cyano-N-{4-fluoro-3-[(8R)-6-imino-5,8-dimethyl-4,4-dioxido-4-thia-5,7-diazaspiro[2.5]oct-8-yl]phenyl}imidazo[1,2-a]pyridine-2-carboxamide] | 1640 | 5500

Further compounds by falling Ki [1], results first:

Ki [1] [nM] | Ki [2] [nM] | SMILES
3250 | 4940 | CN1C(=N)N[C@](C)(c2cc(NC(=O)c3cn(C)nc3C(F)(F)F)ccc2F)C2(CC2)S1(=O)=O [Example 1b, N-{4-fluoro-3-[(8R)-6-imino-5,8-dimethyl-4,4-dioxido-4-thia-5,7-diazaspiro[2.5]oct-8-yl]phenyl}-1-methyl-3-(trifluoromethyl)-1H-pyrazole-4-carboxamide]
106 | 47 | CN1C(=N)N[C@](C)(c2cc(NC(=O)c3ncc(C(F)(F)F)cn3)ccc2F)C2(CC2)S1(=O)=O [Example 1i, N-{4-fluoro-3-[(8R)-6-imino-5,8-dimethyl-4,4-dioxido-4-thia-5,7-diazaspiro[2.5]oct-8-yl]phenyl}-5-(trifluoromethyl)pyrimidine-2-carboxamide]
63 | 232 | CN1C(=N)N[C@](C)(c2cc(NC(=O)c3cn4ccsc4n3)ccc2F)C2(CC2)S1(=O)=O [Example 1v, N-{4-fluoro-3-[(8R)-6-imino-5,8-dimethyl-4,4-dioxido-4-thia-5,7-diazaspiro[2.5]oct-8-yl]phenyl}imidazo[2,1-b][1,3]thiazole-6-carboxamide]
17 | 3 | CN1C(=N)N[C@](C)(c2cc(NC(=O)c3ccc(C#N)cn3)ccc2F)C2(CC2)S1(=O)=O [Example 1g, 5-cyano-N-{4-fluoro-3-[(8R)-6-imino-5,8-dimethyl-4,4-dioxido-4-thia-5,7-diazaspiro[2.5]oct-8-yl]phenyl}pyridine-2-carboxamide]
17 | 18 | COc1ccc(C(=O)Nc2ccc(F)c([C@@]3(C)NC(=N)N(C)S(=O)(=O)C34CC4)c2)nc1 [Example 1a, N-{4-fluoro-3-[(8R)-6-imino-5,8-dimethyl-4,4-dioxido-4-thia-5,7-diazaspiro[2.5]oct-8-yl]phenyl}-5-methoxypyridine-2-carboxamide]
15 | 25 | CN1C(=N)N[C@](C)(c2cc(NC(=O)c3cnsn3)ccc2F)C2(CC2)S1(=O)=O [Example 1d, N-{4-fluoro-3-[(8R)-6-imino-5,8-dimethyl-4,4-dioxido-4-thia-5,7-diazaspiro[2.5]oct-8-yl]phenyl}-1,2,5-thiadiazole-3-carboxamide]
10 | 22 | COc1cnc(C(=O)Nc2ccc(F)c([C@@]3(C)NC(=N)N(C)S(=O)(=O)C34CC4)c2)c(C)c1 [Example 1j]
8 | 25 | Cc1nc(C(=O)Nc2ccc(F)c([C@@]3(C)NC(=N)N(C)S(=O)(=O)C34CC4)c2)c(C)o1 [Example 1u, N-{4-fluoro-3-[(8R)-6-imino-5,8-dimethyl-4,4-dioxido-4-thia-5,7-diazaspiro[2.5]oct-8-yl]phenyl}-2,5-dimethyl-1,3-oxazole-4-carboxamide]
8 | 16 | CN1C(=N)N[C@](C)(c2cc(NC(=O)c3ccc(F)cn3)ccc2F)C2(CC2)S1(=O)=O [Example 1r, 5-fluoro-N-{4-fluoro-3-[(8R)-6-imino-5,8-dimethyl-4,4-dioxido-4-thia-5,7-diazaspiro[2.5]oct-8-yl]phenyl}pyridine-2-carboxamide]
5 | 2 | Cc1cc(C#N)cnc1C(=O)Nc1ccc(F)c([C@@]2(C)NC(=N)N(C)S(=O)(=O)C23CC3)c1 [Example 1k, 5-cyano-N-{4-fluoro-3-[(8R)-6-imino-5,8-dimethyl-4,4-dioxido-4-thia-5,7-diazaspiro[2.5]oct-8-yl]phenyl}-3-methylpyridine-2-carboxamide]
3 | 6 | CN1C(=N)N[C@](C)(c2cc(NC(=O)c3ncc(Cl)cc3F)ccc2F)C2(CC2)S1(=O)=O [Example 1o, 5-chloro-3-fluoro-N-{4-fluoro-3-[(8R)-6-imino-5,8-dimethyl-4,4-dioxido-4-thia-5,7-diazaspiro[2.5]oct-8-yl]phenyl}pyridine-2-carboxamide]
